Laboratory results reported in the supplement of paper PMC10307832.

How the values were obtained:
Test in all cases: relative viability (nuclei count vs DMSO), 5 days (fraction); higher = more cells survive
DM3189 + Foretinib = compound: C1CN(CCN1)C2=CC=C(C=C2)C3=CN4C(=C(C=N4)C5=CC=NC6=CC=CC=C56)N=C3 [DM3189] + COc1cc2c(Oc3ccc(NC(=O)C4(C(=O)Nc5ccc(F)cc5)CC4)cc3F)ccnc2cc1OCCCN1CCOCC1 [Foretinib] (partner 0.25 µM)
Outline: (§1)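 Values are medians from duplicate plates. Each reflects relative viability, defined as the nuclei count of treated wells over that of vehicle wells. Lung cancer cell lines in 1536-well plates were pin-tool dosed one day after seeding with one drug alone or with a fixed anchor-drug dose plus five library-drug doses (not always all listed) in √10 steps, then fixed, stained and imaged at 4× after 5 days.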

DM3189 + Alpelisib = compound: C1CN(CCN1)C2=CC=C(C=C2)C3=CN4C(=C(C=N4)C5=CC=NC6=CC=CC=C56)N=C3 [DM3189] + Cc1nc(NC(=O)N2CCC[C@H]2C(N)=O)sc1-c1ccnc(C(C)(C)C(F)(F)F)c1 [Alpelisib] (partner 2 µM)
Outline: as §1

DM3189 + Luminespib = compound: C1CN(CCN1)C2=CC=C(C=C2)C3=CN4C(=C(C=N4)C5=CC=NC6=CC=CC=C56)N=C3 [DM3189] + CCNC(=O)c1noc(-c2cc(C(C)C)c(O)cc2O)c1-c1ccc(CN2CCOCC2)cc1 [Luminespib] (partner 0.01 µM)
Outline: as §1

DM3189 + OSI-027 = compound: C1CN(CCN1)C2=CC=C(C=C2)C3=CN4C(=C(C=N4)C5=CC=NC6=CC=CC=C56)N=C3 [DM3189] + COc1cccc2cc(-c3nc([C@H]4CC[C@H](C(=O)O)CC4)n4ncnc(N)c34)[nH]c12 [OSI-027] (partner 0.5 µM)
Outline: as §1

DM3189 + Decitabine = compound: C1CN(CCN1)C2=CC=C(C=C2)C3=CN4C(=C(C=N4)C5=CC=NC6=CC=CC=C56)N=C3 [DM3189] + Nc1ncn([C@H]2C[C@H](O)[C@@H](CO)O2)c(=O)n1 [Decitabine] (partner 2 µM)
Outline: as §1

Row | Cell Line | relative viability (DM3189 + Foretinib; first compound 0.08 µM) | relative viability (DM3189 + Foretinib; first compound 0.253 µM) | relative viability (DM3189 + Foretinib; first compound 0.8 µM) | relative viability (DM3189 + Foretinib; first compound 2.53 µM) | relative viability (DM3189 + Alpelisib; first compound 0.08 µM) | relative viability (DM3189 + Alpelisib; first compound 0.253 µM) | relative viability (DM3189 + Alpelisib; first compound 0.8 µM) | relative viability (DM3189 + Alpelisib; first compound 2.53 µM) | relative viability (DM3189 + Luminespib; first compound 0.08 µM) | relative viability (DM3189 + Luminespib; first compound 0.253 µM) | relative viability (DM3189 + Luminespib; first compound 0.8 µM) | relative viability (DM3189 + Luminespib; first compound 2.53 µM) | relative viability (DM3189 + OSI-027; first compound 0.08 µM) | relative viability (DM3189 + OSI-027; first compound 0.253 µM) | relative viability (DM3189 + OSI-027; first compound 0.8 µM) | relative viability (DM3189 + OSI-027; first compound 2.53 µM) | relative viability (DM3189 + Decitabine; first compound 0.08 µM) | relative viability (DM3189 + Decitabine; first compound 0.253 µM) | relative viability (DM3189 + Decitabine; first compound 0.8 µM) | relative viability (DM3189 + Decitabine; first compound 2.53 µM)
1 | IA-LM | 1.24 | 1.2 | 1.26 | 1.32 | 1.24 | 0.581 | 0.963 | 1.31 |  |  |  |  |  |  |  |  |  |  |  | 
2 | ChaGo-K-1 | 1.07 | 0.903 | 0.858 | 0.976 |  |  |  |  | 0.643 | 0.52 | 0.492 | 0.676 | 0.594 | 0.607 | 0.383 | 0.589 | 0.521 | 0.507 | 0.475 | 0.537
3 | NCI-H2342 | 1.08 | 0.912 | 1.08 | 0.965 |  |  |  |  | 0.916 | 0.66 | 0.845 | 0.702 | 0.658 | 0.626 | 0.622 | 0.552 | 0.747 | 0.679 | 0.718 | 0.688
4 | SK-MES-1 | 0.849 | 0.701 | 0.698 | 0.76 | 0.937 | 0.873 | 0.738 | 0.782 | 0.848 | 0.82 | 0.611 | 0.412 | 0.602 | 0.53 | 0.523 | 0.481 | 0.461 | 0.418 | 0.317 | 0.361
5 | LCLC-97TM1 | 0.877 | 0.857 | 0.765 | 0.747 | 0.163 | 0.239 | 0.219 | 0.185 | 0.71 | 0.574 | 0.699 | 0.606 | 0.563 | 0.304 | 0.397 | 0.396 | 0.263 | 0.201 | 0.197 | 0.228
6 | NCI-H2170 | 0.985 | 1.01 | 0.883 | 1.16 | 0.96 | 0.854 | 0.734 | 0.641 | 0.939 | 0.836 | 0.762 | 0.764 | 0.863 | 0.76 | 0.768 | 0.686 | 0.494 | 0.484 | 0.466 | 0.44
7 | NCI-H2009 | 1.22 | 1.16 | 1.14 | 1.25 | 1.17 | 1.16 | 1.13 | 1.15 | 1.06 | 1.01 | 0.932 | 1.06 | 0.684 | 0.577 | 0.553 | 0.579 | 0.416 | 0.354 | 0.412 | 0.417
8 | NCI-H520 | 0.713 | 0.554 | 0.62 | 0.631 | 0.837 | 0.633 | 0.637 | 0.48 | 0.238 | 0.228 | 0.214 | 0.214 | 0.281 | 0.232 | 0.237 | 0.232 | 0.534 | 0.399 | 0.521 | 0.336
9 | NCI-H1975 | 1.02 | 0.871 | 0.898 | 0.782 | 0.869 | 0.718 | 0.658 | 0.342 | 0.302 | 0.254 | 0.162 | 0.263 | 1 | 0.627 | 0.666 | 0.514 | 0.374 | 0.41 | 0.361 | 0.336
